Values joined by “and” are separate entries in the source; they are usually repeats but may differ in a detail not shown here. Equal values may be shown once.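 Step 1: Grow cells in 96-well plates. Step 2: Expose to compound for 48 hours at 5 concentrations. Step 3: Interpolate endpoints linearly; if unreached, use highest concentration. GI50: concentration for 50% inhibition of growth. TGI: total growth inhibition.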
Columns and labels:
Assay in all cases: growth of human tumour cells (NCI), 48 h
[1] = tested on: HOP-92 NSCLC
[2] = tested on: SK-MEL-5 melanoma
[3] = tested on: SK-MEL-28 melanoma
[4] = tested on: RPMI-8226 leukemia
[5] = tested on: KM12 colon
[6] = tested on: NCI-H460 lung
[7] = tested on: SNB-75 CNS
[8] = tested on: OVCAR-3 ovarian
[9] = tested on: TK-10 renal
[10] = tested on: SW-620 colon

Row | SMILES | TGI [1] [µM] | TGI [2] [µM] | TGI [3] [µM] | TGI [4] [µM] | TGI [5] | TGI [6] [µM] | TGI [7] [µM] | TGI [8] | TGI [9] [µM] | TGI [10] [µM] | GI50 [1] [µM] | GI50 [2] [µM] | GI50 [3] [µM] | GI50 [4] [µM] | GI50 [5] [µM] | GI50 [6] [µM] | GI50 [7] [µM] | GI50 [8] [µM] | GI50 [9] [µM] | GI50 [10] [µM]
1 | C/C(=C\COc1ccc2ccc(=O)oc2c1)CCC(=O)C(C)(C)O | 64.5 | 30.2 | > 100 | 50 | 41 µM | > 100 | > 100 | 46.4 µM | > 100 | 38.9 |  |  |  |  |  |  |  |  |  | 
2 | COc1ccc(OC)c(/C=C/C(=O)c2ccc(SC)cc2)c1 | > 100 | 14 | 51.1 | 7.05 | 27.7 µM | 17.6 | > 100 | 2.7 µM | 65.7 | > 100 | 6 | 3.31 | 10.1 | 1.66 | 4.9 | 3.82 | 8.88 | 0.0897 | 17.9 | 3.45
3 | COc1ccc(CN[C@H]2CCc3cc(OC)c(OC)c(OC)c3-c3ccc(SC)c(=O)cc32)c(OC)c1OC | 77.2 | 0.257 | > 100 | 31.5 | 0.228 µM and 0.0408 µM | 0.0767 |  | 0.0618 µM and 0.028 µM | > 100 | > 100 | 0.0295 |  | 0.0101 | 0.0254 | < 0.01 |  | 5.77 | < 0.01 |  | < 0.01
4 | Cc1nc(=O)n2c(c1C(=O)Nc1ccc(Cl)cc1)NCCC2 | > 100 |  | > 100 | > 100 | > 100 µM | > 100 |  | > 100 µM | > 100 | > 100 |  |  |  |  |  |  |  |  |  | 
5 | COc1ccc(C(=O)C(CN(C)C)c2ccccc2)cc1 (configuration not stated) |  | 15.4 | 3.38 | > 100 | 13.6 µM | 19.2 | 27.3 | 2.89 µM | 7.85 | 1.57 |  | 4.22 | 1.83 | 1.88 | 3.98 | 6.13 | 12.8 | 1.42 | 3.01 | 0.496
6 | CC(C(=O)C(C)O[Si](c1ccccc1)(c1ccccc1)C(C)(C)C)=P(c1ccccc1)(c1ccccc1)c1ccccc1 (configuration not stated) | 4.74 | 8.12 |  | 6.58 | 12.9 µM | 13.4 | 8.11 | 9.38 µM | 16.9 | 15.4 |  |  |  |  |  |  |  |  |  | 
7 | COc1cccc(C2N3CCCCC3[C@@H]3c4[nH]c5ccccc5c4CCN23)c1OC (some centres not stated) | 31.6 | 30.6 | 30.4 | 42.7 |  | 36.3 |  | 25.9 µM | 33.4 | 33.4 |  |  |  |  |  |  |  |  |  | 
8 | COC(=O)C([O][Ge]([CH3])([CH3])[CH3])c1ccccc1 (configuration not stated) | > 100 | > 100 | > 100 |  | > 100 µM | > 100 | > 100 | > 100 µM | > 100 | > 100 | > 100 | > 100 | > 100 |  | > 100 | > 100 | > 100 | > 100 | > 100 | > 100

Source: PubChem BioAssay (NCI)
